These results are taken from ChEMBL document CHEMBL1201862, “PubChem BioAssay data set” (2004).

Each structure is given as a SMILES string. Calls of active or inactive are those of the source.

Experiment [1] concerns the target Genome polyprotein (Hepatitis C virus, UniProt Q2Q167). As to the kind of experiment: disruption of hepatitis C core self-association – biochemical, TR-FRET, dose response (AID 2159).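 Further: blocks dimerization of HCV core protein measured by TR-FRET between tagged core106 pairs.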 Details: species or system Hepacivirus hominis.
Experiment [2] deals with Ephrin type-A receptor 4 (Mus musculus, UniProt Q03137). As to the kind of experiment: EphA4 ligand-binding antagonists – biochemical, colorimetric, mouse EphA4, primary screen (AID 689). The format is functional.
Chain of Ephrin type-A receptor 4 (Q03137 whole entry): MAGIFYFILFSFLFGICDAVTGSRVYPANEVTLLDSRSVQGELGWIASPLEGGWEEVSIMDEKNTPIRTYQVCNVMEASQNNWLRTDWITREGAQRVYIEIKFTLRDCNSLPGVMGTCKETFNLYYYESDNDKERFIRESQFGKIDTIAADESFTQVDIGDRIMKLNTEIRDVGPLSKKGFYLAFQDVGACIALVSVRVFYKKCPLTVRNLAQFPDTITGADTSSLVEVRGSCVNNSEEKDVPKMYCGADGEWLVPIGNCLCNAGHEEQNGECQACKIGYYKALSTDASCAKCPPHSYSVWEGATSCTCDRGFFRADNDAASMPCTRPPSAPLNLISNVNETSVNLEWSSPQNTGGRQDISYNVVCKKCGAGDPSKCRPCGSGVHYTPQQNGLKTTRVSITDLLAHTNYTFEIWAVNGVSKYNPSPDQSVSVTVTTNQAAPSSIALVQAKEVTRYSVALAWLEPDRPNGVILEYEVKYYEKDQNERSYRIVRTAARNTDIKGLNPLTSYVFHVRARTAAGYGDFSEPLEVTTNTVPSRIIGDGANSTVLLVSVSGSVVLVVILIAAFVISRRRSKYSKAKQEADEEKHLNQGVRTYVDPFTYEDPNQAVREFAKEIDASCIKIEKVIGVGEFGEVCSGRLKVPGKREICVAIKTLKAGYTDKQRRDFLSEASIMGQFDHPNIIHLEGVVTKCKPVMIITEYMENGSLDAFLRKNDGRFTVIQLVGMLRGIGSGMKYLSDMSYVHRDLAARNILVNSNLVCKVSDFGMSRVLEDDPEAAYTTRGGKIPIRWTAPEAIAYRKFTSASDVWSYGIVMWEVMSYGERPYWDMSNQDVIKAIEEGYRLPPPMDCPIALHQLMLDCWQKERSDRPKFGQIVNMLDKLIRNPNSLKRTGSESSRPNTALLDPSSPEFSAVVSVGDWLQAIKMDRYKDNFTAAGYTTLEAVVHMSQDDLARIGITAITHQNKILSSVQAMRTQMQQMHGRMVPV
Experiment [3] concerns the target Induced myeloid leukemia cell differentiation protein Mcl-1 (Homo sapiens, UniProt Q07820). Format: functional.
Experiment [4] concerns the target Protein Tat (Human immunodeficiency virus type 1 group M subtype B (isolate HXB2)(HIV-1), UniProt P04608). The format is functional.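 Further: tat binding to TAR RNA read out by fluorescence polarization.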
The target in experiment [5] is Cytochrome P450 2D6 (Homo sapiens, UniProt P10635).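 Further: CYP2D6 member of a cytochrome P450 panel assay.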
Chain of Cytochrome P450 2D6 (P10635 whole entry): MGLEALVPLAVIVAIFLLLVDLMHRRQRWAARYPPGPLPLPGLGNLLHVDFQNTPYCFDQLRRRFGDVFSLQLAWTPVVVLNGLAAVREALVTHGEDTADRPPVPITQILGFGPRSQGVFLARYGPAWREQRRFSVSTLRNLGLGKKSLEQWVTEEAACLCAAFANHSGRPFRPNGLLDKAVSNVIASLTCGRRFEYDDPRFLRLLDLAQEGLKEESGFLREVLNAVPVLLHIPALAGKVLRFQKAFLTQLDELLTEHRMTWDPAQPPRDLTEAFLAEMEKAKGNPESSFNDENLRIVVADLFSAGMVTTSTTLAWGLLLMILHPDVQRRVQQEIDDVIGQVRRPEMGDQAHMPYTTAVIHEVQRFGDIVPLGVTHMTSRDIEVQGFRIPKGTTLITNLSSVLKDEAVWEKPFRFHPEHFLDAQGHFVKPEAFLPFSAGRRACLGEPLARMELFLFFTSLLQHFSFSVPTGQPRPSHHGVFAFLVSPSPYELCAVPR
The target in experiment [6] is Caspase-6 (Homo sapiens, UniProt P55212). As to the kind of experiment: inhibition of CASP6 peptide cleavage – biochemical, VEID-R110 fluorescence, cherry-pick, dose response (AID 720632).
Chain of Caspase-6 (P55212 24-179 limits assumed): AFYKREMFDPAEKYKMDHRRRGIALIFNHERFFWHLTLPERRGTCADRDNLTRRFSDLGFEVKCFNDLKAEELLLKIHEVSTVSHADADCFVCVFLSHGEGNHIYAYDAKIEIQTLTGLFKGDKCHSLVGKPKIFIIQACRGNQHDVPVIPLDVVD
Chain of Caspase-6 (P55212 194-293 limits assumed): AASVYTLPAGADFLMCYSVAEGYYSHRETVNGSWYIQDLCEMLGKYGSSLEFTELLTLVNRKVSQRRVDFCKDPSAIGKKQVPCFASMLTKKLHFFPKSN
Experiment [7] has as its target Kallikrein-7 (Homo sapiens, UniProt P49862). As to the kind of experiment: Fluorescence Intensity-based biochemical primary high throughput dose response assay to identify activators of kallikrein-7 (K7) zymogen.
A short description of experiment [8]: Luminescence-based cell-based high throughput dose response assay to identify activators of the DAF-12 from the parasite S. stercoralis (ssDAF-12). The format is functional.
Experiment [9] can be described thus: cells.
Experiment [10] is described as follows: cells. This is another data set of the same source.
Experiment [11] has as its target T1, Oxysterols receptor LXR-beta (Homo sapiens, UniProt P55055).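 Further: Cell-based luminescence dose-response assay of agonist activity at LXR, run as a confirmatory counterscreen to a daf-12 agonist screen; HEK293 cells with Gal4-LXR fusion and GAL4-driven luciferase reporter; agonist potency from rising luciferase signal of a Gal4-LXR reporter.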
T1 sequence (P55055 whole entry): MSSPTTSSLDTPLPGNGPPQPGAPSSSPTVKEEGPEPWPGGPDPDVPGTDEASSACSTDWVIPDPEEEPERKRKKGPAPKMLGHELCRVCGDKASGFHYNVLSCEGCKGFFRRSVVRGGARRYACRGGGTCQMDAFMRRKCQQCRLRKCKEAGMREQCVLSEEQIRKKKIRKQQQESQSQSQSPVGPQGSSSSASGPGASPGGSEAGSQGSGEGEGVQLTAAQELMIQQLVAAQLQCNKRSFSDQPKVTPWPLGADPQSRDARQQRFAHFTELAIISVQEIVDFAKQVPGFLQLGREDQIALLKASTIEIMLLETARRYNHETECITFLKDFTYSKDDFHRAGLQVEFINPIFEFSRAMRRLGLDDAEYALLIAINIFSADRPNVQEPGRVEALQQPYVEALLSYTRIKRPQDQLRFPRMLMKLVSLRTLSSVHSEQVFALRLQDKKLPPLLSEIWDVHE
Format: functional, cell-based.

Experiment [12] concerns Streptococcus sp. 'group A'. As to the kind of experiment: Streptococcus pyogenes SK(-)GAS viability under kanamycin – luminescence, BacTiterGlo, confirmation, counter-screen for streptokinase expression inhibitor project, dose response (AID 1900). The format is functional, organism-based.
The subject of experiment [13] is Streptococcus. As to the kind of experiment: GAS UMAA2166 growth inhibition – luminescence, BacTiterGlo, counter-screen for streptokinase expression inhibitor project, dose response (AID 1915).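 Further: potency for reduction of bacterial viability or growth.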 Format: functional, organism-based.
The nature of experiment [14]: NIH3T3 cell viability loss – ATP luminescence, mouse fibroblasts, counter-screen, dose response (AID 2010).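 Further: cells exposed to compound for about 90 hours before reading.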 The format is functional, cell-based.
A short description of experiment [15]: viability loss in HepG2 hepatoma cells – cell-based, ATP luminescence, cherry-pick, activator set 2, cytotoxicity control, dose response (AID 1053143). Format: functional.
Experiment [16] is described as follows: Trypanosoma cruzi growth suppression in host cells – NIH3T3 host cells, beta-gal luminescence, confirmation (AID 2044).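 Further: intracellular parasites grown in NIH/3T3 mouse fibroblasts as host cells; luminescent beta-galactosidase reporter signal from transgenic T. cruzi replicating inside host cells; inhibitors lower the luminescence signal.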 Format: functional, cell-based.
For experiment [17], the target named is T2, Streptokinase A (Streptococcus pyogenes serotype M1, UniProt P10520).
T2 sequence (P10520 whole entry): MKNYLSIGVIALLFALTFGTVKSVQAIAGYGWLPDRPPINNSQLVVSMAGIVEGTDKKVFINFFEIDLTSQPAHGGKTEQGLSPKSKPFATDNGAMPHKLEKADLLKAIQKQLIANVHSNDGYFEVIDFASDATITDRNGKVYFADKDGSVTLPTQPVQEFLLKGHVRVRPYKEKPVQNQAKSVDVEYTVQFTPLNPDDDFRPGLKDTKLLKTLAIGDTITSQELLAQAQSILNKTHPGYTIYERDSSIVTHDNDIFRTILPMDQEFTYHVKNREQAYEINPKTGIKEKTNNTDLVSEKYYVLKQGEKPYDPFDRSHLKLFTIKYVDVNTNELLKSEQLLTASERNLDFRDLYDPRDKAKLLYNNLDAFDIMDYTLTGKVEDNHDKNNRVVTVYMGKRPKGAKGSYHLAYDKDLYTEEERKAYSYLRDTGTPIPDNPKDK
As to the kind of experiment: viability-normalized secreted streptokinase activity reduction – plasminogen activation absorbance, OD405, dose response (AID 1914).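 Further: secreted streptokinase activity via plasminogen activation per viability signal from cell pellet.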 Format: functional, Streptococcus pyogenes M1 GAS.

A short description of experiment [18]: activation of miR-122 Renilla sensor silencing – cell-based, Huh7 psiCHECK-miR122, Renilla luciferase, cherry-picked, dose response (AID 651956).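 Further: huh7 hepatoma cells stably carrying a psiCHECK-2 miR-122 sensor plasmid; renilla luciferase signal reporting endogenous miR-122 activity after 48 h compound exposure.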 The format is functional.
Experiment [19] is described as follows: general mammalian cell viability loss – activator set, cherry-pick, cytotoxicity control for miR-122 modulator project, dose response (AID 720690).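 Further: HEK293T human cells scored for general mammalian cytotoxicity.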 The format is functional, cell-based.
The nature of experiment [20]: Luminescence Cell-Based Dose Retest to Confirm Inhibitors of Cancer Stem Cells. [Related pubchem assays (depositor defined):AID2717, AID2721]. Conditions: Homo sapiens. Format: functional.
Experiment [21] has as its target Luciferin 4-monooxygenase (Photinus pyralis, UniProt P08659). As to the kind of experiment: Counter Screen for Luciferase-based Assay Positives. [Related pubchem assays: 620, 618, 411 ].
Experiment [22] has as its system HT-1080. As to the kind of experiment: HT1080 cell viability loss – fluorescence readout (AID 620). The format is functional, cell-based. Conditions: Homo sapiens.
A short description of experiment [23]: OVCAR-3 cell viability loss – plate reader, dry powder samples, PAX8 inhibitor project, dose response (AID 743044). Format: functional, cell-based.
A short description of experiment [24]: IGROV1 cell killing – plate reader, dry powder samples, PAX8 inhibitor project, dose response (AID 743043). The format is functional, cell-based. Conditions: IGROV-1.
The nature of experiment [25]: OVCAR8 cell viability loss – plate reader, dry powder samples, PAX8 project, dose response (AID 743197). The format is functional, cell-based. Conditions: OVCAR-8.
The target of experiment [26] is Paired box protein Pax-8 (Homo sapiens, UniProt Q06710). As to the kind of experiment: PAX8 transcriptional activity inhibition in RMG-I – RMG-I cells, luciferase, cherry-pick, dose response (AID 687027).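 Further: luciferase reporter driven by Pax8 target thyroperoxidase promoter measured by SteadyGlo luminescence.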 The format is functional, cell-based.
Chain of Paired box protein Pax-8 (Q06710 whole entry): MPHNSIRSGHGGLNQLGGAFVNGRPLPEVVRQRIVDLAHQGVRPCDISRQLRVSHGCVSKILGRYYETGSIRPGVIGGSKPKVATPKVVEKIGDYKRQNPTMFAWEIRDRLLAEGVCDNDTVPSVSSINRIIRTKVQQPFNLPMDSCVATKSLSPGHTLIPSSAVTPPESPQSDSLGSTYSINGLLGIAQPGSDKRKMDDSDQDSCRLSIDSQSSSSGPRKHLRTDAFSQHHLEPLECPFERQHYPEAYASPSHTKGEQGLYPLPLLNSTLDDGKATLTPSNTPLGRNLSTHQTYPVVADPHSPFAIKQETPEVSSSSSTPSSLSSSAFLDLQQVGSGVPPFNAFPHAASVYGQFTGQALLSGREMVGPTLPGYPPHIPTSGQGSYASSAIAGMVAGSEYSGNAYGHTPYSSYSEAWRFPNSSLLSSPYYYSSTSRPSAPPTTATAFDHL
Experiment [27] can be described thus: viability loss in HEK293 kidney cells – cell-based, cherry-picks, set 5, cytotoxicity control, dose response (AID 1053117). The format is functional.
Experiment [28] in a line: reduced cellular PGC1a acetyl-lysine signal – cell-based, cherry-picked samples, dose response (AID 720514).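 Further: potency may reflect raised or lowered acetylation signal.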 Format: functional.
Experiment [29] in a line: blockers of FN fibrillogenesis by fibroblasts – AH1F cells, Alexa488-FN fluorescence, cherry-picks, dose response (AID 1035475). The format is functional, cell-based.
The nature of experiment [30]: toxicity to human hepatoma HepG2 cells – cell-based, cherry-picked samples, cytotoxicity control, dose response (AID 1159577). The format is functional.
Experiment [31] is described as follows: P. falciparum Dd2 growth inhibitors, dose response, SYBR Green, cherry-picked samples (AID 1159567). Format: functional, cell-based.
Experiment [32] deals with H4. As to the kind of experiment: Luminescence Cell-Based Dose Response HTS to Identify Activators of 5'UTR Stem-Loop Driven Prion Protein mRNA Translation in H4 Neuroglioblastoma Cells. [Related pubchem assays: 1829 (Project Summary), 1814 (Primary HTS)]. Format: functional. The following applies: Homo sapiens.
Experiment [33] in a line: Luminescence Cell-Based Dose Confirmation HTS to Identify Activators of 5'UTR Stem-Loop Driven Alpha-Synuclein mRNA Translation in H4 Neuroglioblastoma Cells. [Related pubchem assays: 1829 (Project Summary), 1814 (Primary HTS)]. The format is functional.
The nature of experiment [34]: cells. The following applies: A549.
For experiment [35], the target named is Peroxisome proliferator-activated receptor gamma/Nuclear receptor coactivator 2 (Homo sapiens, UniProt P37231). Format: functional.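 Further: agonist potency for raising coactivator recruitment to the receptor.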
Experiment [36] in a line: Luminescence Cell-Based Dose Response HTS to Identify Activators of Luciferase Translation or Activity in H4 […] Cells. [Related pubchem assays: 1829 (Project Summary), 1814 (Primary HTS)]. Format: functional.
For experiment [37], the target named is Peroxisome proliferator-activated receptor gamma/Nuclear receptor coactivator 3 (Homo sapiens, UniProt P37231). Format: functional.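 Further: agonist potency for raising coactivator recruitment to the receptor.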
Experiment [38] deals with Peroxisome proliferator-activated receptor gamma/Nuclear receptor coactivator 1 (Homo sapiens, UniProt P37231). Format: functional.

Chain of Protein Tat (P04608 whole entry): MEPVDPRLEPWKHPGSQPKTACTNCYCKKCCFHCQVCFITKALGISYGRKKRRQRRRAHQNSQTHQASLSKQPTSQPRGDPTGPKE
Chain of Kallikrein-7 (P49862 whole entry): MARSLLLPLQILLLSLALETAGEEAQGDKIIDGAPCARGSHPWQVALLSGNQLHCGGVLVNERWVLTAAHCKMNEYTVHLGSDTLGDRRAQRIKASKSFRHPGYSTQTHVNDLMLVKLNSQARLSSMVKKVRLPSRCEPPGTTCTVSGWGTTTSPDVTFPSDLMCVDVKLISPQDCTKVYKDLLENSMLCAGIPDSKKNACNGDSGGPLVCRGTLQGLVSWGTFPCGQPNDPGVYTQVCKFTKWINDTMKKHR
Chain of Luciferin 4-monooxygenase (P08659 whole entry): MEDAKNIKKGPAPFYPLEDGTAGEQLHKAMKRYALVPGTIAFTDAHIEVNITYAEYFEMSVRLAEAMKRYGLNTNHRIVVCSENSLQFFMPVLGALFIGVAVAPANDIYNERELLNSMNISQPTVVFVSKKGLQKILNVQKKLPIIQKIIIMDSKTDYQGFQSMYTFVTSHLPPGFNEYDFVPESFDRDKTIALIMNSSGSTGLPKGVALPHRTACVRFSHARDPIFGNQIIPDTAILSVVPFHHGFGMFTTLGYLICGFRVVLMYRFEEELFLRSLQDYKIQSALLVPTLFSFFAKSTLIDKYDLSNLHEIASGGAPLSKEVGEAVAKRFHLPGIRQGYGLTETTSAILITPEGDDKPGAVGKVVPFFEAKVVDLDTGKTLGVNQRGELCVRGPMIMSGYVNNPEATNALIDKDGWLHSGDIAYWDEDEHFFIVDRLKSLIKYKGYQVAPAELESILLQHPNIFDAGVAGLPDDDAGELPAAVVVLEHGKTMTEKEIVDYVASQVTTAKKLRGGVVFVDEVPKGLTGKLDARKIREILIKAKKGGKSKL
Chain of Genome polyprotein (Q2Q167 whole entry): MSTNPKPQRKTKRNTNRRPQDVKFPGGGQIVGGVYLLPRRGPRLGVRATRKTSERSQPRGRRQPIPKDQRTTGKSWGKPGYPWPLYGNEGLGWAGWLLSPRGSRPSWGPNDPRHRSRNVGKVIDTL
Chain of Induced myeloid leukemia cell differentiation protein Mcl-1 (Q07820 whole entry): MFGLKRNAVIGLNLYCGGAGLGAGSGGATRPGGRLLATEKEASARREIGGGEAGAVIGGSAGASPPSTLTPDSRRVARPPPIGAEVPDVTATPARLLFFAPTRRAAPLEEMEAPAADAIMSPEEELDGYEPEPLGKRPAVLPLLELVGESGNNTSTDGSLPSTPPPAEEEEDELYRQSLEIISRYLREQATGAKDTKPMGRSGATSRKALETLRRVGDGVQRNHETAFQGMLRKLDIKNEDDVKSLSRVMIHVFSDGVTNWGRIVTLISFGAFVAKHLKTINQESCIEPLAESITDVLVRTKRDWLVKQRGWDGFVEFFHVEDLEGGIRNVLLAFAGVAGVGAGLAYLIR

On to `Cc1cccc2c(N=Nc3ccc(S(=O)(=O)Nc4ccc(Cl)cc4)cc3[N+](=O)[O-])c(O)[nH]c12`, for which the IC50 in [1] was > 49.8 µM (not active).
With `CCNc1ccc(Br)cc(C(=O)/C=C/c2ccc3c(c2)OCO3)c1=O`, the IC50 in experiment [2] was 5.22 µM (active); in experiment [3] it was 2.58 µM (active); in [4] it was 29.1 µM (inconclusive). The AC50 in experiment [5] was 8.91 µM (inconclusive).
On to `COc1cc(/C=C2\SC(=S)N(Nc3ncc(C(F)(F)F)cc3Cl)C2=O)cc(OC)c1OC`, for which, in [2], the IC50 is 3.57 µM (active).
For `O=C1CC(C(=O)Nc2ccc(Br)cc2)C2(CCCC2)O1` (configuration not stated), the half-maximal activity concentration (AC50) in experiment [6] was 6.92 µM (active).
Turning to `Cc1sc(-c2ccncc2)nc1OC(=O)c1ccc(F)cc1F`, in experiment [7], the EC50 was 26.5 µM (inactive).
As to `CCOc1ccc(NC(=O)Cc2cccc3ccccc23)c([N+](=O)[O-])c1`, the IC50 in [8] was > 67.5 µM (inactive).
`COC(=O)c1ccc(C)c(NC(=O)CCSc2ccccc2)c1`: in [4], the IC50 is 65.1 µM (inconclusive).
On to `COc1ccc(C2C(C#N)=C(N)Oc3cc(O)ccc32)cc1Cl` (configuration not stated), for which the AC50 in experiment [9] was 19.9 µM (active).
In the case of `Cc1cccc(Nc2nc(-c3ccccc3)cs2)n1`, the EC50 in experiment [10] and in experiment [11] was > 67.5 µM (inactive) each time.
With `O=C(Nc1nc2cc3c(cc2s1)OCCO3)c1ccc([N+](=O)[O-])o1`, the EC50 in [12] is 16.6 µM (active); in experiment [13], > 150 µM (not active); in [14] it was > 60 µM (not active); in experiment [16], 1.78 µM (active); in [17], > 150 µM (not active). Besides, the AC50 in experiment [15] is 26 µM (active).
In the case of `COc1ccc(-c2cc(C3CCN(c4ccc(C(C)=O)cc4[N+](=O)[O-])CC3)[nH]n2)cc1`, the EC50 in [12] is 2.74 µM (active); in experiment [13] it was 24.3 µM (active); in experiment [14], > 60 µM (not active); in experiment [16], 1.87 µM (active); in [17] it was > 150 µM (not active). The values for the AC50 in [18], in experiment [19] and in experiment [20] were 23 µM (active), 17.6 µM (active) and 2.46 µM (active), respectively.
On to `COc1cccc(-c2nc3cc(C)ccc3o2)c1`, for which the EC50 was > 100 µM (not active) in experiment [21], > 67.6 µM (inactive) in experiment [10], > 50 µM (not active) in experiment [22] and > 67.6 µM (inactive) in [11]. For the same compound, the AC50 in [15] is 26 µM (active).
Turning to `C[C@H](CO)N1C[C@H](C)[C@@H](CN(C)Cc2ccc(C(F)(F)F)cc2)OCCCC[C@H](C)Oc2ccc(NS(=O)(=O)c3ccc(Cl)cc3)cc2C1=O`, the AC50 in experiment [23] is 14.5 µM (active); in experiment [24], 21.7 µM (active); in experiment [25], 34.1 µM (active); in [26], 7.37 µM (active).
`C[C@H]1CN([C@@H](C)CO)C(=O)c2cc(-c3ccccc3)cnc2O[C@@H]1CN(C)C(=O)c1cccc(F)c1`: the AC50 in experiment [27] was > 52 µM (inactive).
For `C[C@@H]1CN([C@H](C)CO)S(=O)(=O)c2ccc(C3=CCCCC3)cc2O[C@H]1CN(C)Cc1ccccc1`, the AC50 in [28] was 11.4 µM (active).
With `O=C(Nc1ccccc1F)N1C[C@H]2[C@@H](c3ccccc31)[C@H](CO)N2C(=O)C1CC1`, the AC50 in experiment [29] is > 70 µM (inactive).
On to `CO[C@@H]1CN(C)C(=O)c2ccc(NC(=O)c3ccc(Oc4ccccc4)cc3)cc2OC[C@@H](C)N(C(C)=O)C[C@H]1C`, for which the AC50 in [28] was 24.2 µM (active).
Regarding `COc1ccc2c3c([nH]c2c1)[C@H](CO)N(S(=O)(=O)c1ccc(C)cc1)CC31CN(Cc2ccccc2)C1`, the AC50 in experiment [30] was > 39 µM (inactive); in [31], 17.5 µM (active).
For `Cc1ccc(S(=O)(=O)N[C@H]2CC[C@H](CCn3cc(C4CCCC4)nn3)O[C@@H]2CO)cc1`, the results for the AC50 in experiment [30] and in experiment [31] were > 39 µM (inactive) and 13.6 µM (active), respectively.
For `Cc1cccn2c(=O)c3cc(C(=O)NCCN4CCOCC4)c(=N)n(CCc4ccccc4)c3nc12`, the EC50 is > 120 µM (not active) in experiment [32]; > 120 µM (not active) in experiment [33]; > 79.4 µM (not active) in [35]; 11 µM (active) in [36]; > 79.4 µM (not active) in [37]; > 79.4 µM (not active) in [38]. Also, the results for the AC50 in experiment [34] and in [9] were 31.4 µM (active) and 1.28 µM (active), respectively.
